± gives the expanded uncertainty stated by the source.
Assay: molar heat capacity at constant pressure
Conditions: 275.15 K; 101.33 kPa; Liquid; Large sample (1 g) DSC

| molar heat capacity at constant pressure [J/K/mol] | Compound |
| --- | --- |
| 352.2 ± 5.5 | COCCOCCOCCO [2-[2-(2-methoxyethoxy)ethoxy]ethanol] |
| 351.2 ± 5.4 | CCCCOCCOCCO [3,6-dioxa-1-decanol] |
| 563.7 ± 8.7 | CCCCCCCCOCCOCCOCCO [2-[2-[2-(octyloxy)ethoxy]ethoxy]ethanol] |

| Compound | molar heat capacity at constant pressure [J/K/mol] |
| --- | --- |
| CCCCOCCO [2-butoxyethan-1-ol] | 261.7 ± 4.1 |

Same assay, conditions: 277.15 K; 101.33 kPa; Liquid; Large sample (1 g) DSC

| molar heat capacity at constant pressure [J/K/mol] | Compound |
| --- | --- |
| 352.6 ± 5.5 | COCCOCCOCCO [2-[2-(2-methoxyethoxy)ethoxy]ethanol] |
| 351.9 ± 5.5 | CCCCOCCOCCO [3,6-dioxa-1-decanol] |
| 564.5 ± 8.7 | CCCCCCCCOCCOCCOCCO [2-[2-[2-(octyloxy)ethoxy]ethoxy]ethanol] |

| Compound | molar heat capacity at constant pressure [J/K/mol] |
| --- | --- |
| CCCCOCCO [2-butoxyethan-1-ol] | 262.6 ± 4.1 |

Same assay, conditions: 279.15 K; 101.33 kPa; Liquid; Large sample (1 g) DSC

| molar heat capacity at constant pressure [J/K/mol] | Compound |
| --- | --- |
| 352.9 ± 5.5 | COCCOCCOCCO [2-[2-(2-methoxyethoxy)ethoxy]ethanol] |
| 352.7 ± 5.5 | CCCCOCCOCCO [3,6-dioxa-1-decanol] |
| 565.2 ± 8.8 | CCCCCCCCOCCOCCOCCO [2-[2-[2-(octyloxy)ethoxy]ethoxy]ethanol] |

| Compound | molar heat capacity at constant pressure [J/K/mol] |
| --- | --- |
| CCCCOCCO [2-butoxyethan-1-ol] | 263.6 ± 4.1 |

Same assay, conditions: 281.15 K; 101.33 kPa; Liquid; Large sample (1 g) DSC

| molar heat capacity at constant pressure [J/K/mol] | Compound |
| --- | --- |
| 353.2 ± 5.5 | COCCOCCOCCO [2-[2-(2-methoxyethoxy)ethoxy]ethanol] |
| 353.4 ± 5.5 | CCCCOCCOCCO [3,6-dioxa-1-decanol] |
| 566 ± 8.8 | CCCCCCCCOCCOCCOCCO [2-[2-[2-(octyloxy)ethoxy]ethoxy]ethanol] |

| Compound | molar heat capacity at constant pressure [J/K/mol] |
| --- | --- |
| CCCCOCCO [2-butoxyethan-1-ol] | 264.6 ± 4.1 |

Same assay, conditions: 283.15 K; 101.33 kPa; Liquid; Large sample (1 g) DSC

| molar heat capacity at constant pressure [J/K/mol] | Compound |
| --- | --- |
| 353.6 ± 5.5 | COCCOCCOCCO [2-[2-(2-methoxyethoxy)ethoxy]ethanol] |
| 354.2 ± 5.5 | CCCCOCCOCCO [3,6-dioxa-1-decanol] |
| 566.9 ± 8.8 | CCCCCCCCOCCOCCOCCO [2-[2-[2-(octyloxy)ethoxy]ethoxy]ethanol] |

| Compound | molar heat capacity at constant pressure [J/K/mol] |
| --- | --- |
| CCCCOCCO [2-butoxyethan-1-ol] | 265.6 ± 4.1 |

Same assay, conditions: 285.15 K; 101.33 kPa; Liquid; Large sample (1 g) DSC

| molar heat capacity at constant pressure [J/K/mol] | Compound |
| --- | --- |
| 353.9 ± 5.5 | COCCOCCOCCO [2-[2-(2-methoxyethoxy)ethoxy]ethanol] |
| 354.9 ± 5.5 | CCCCOCCOCCO [3,6-dioxa-1-decanol] |
| 567.7 ± 8.8 | CCCCCCCCOCCOCCOCCO [2-[2-[2-(octyloxy)ethoxy]ethoxy]ethanol] |

| Compound | molar heat capacity at constant pressure [J/K/mol] |
| --- | --- |
| CCCCOCCO [2-butoxyethan-1-ol] | 266.6 ± 4.1 |

Same assay, conditions: 287.15 K; 101.33 kPa; Liquid; Large sample (1 g) DSC

| molar heat capacity at constant pressure [J/K/mol] | Compound |
| --- | --- |
| 354.3 ± 5.5 | COCCOCCOCCO [2-[2-(2-methoxyethoxy)ethoxy]ethanol] |
| 355.7 ± 5.5 | CCCCOCCOCCO [3,6-dioxa-1-decanol] |
| 568.6 ± 8.8 | CCCCCCCCOCCOCCOCCO [2-[2-[2-(octyloxy)ethoxy]ethoxy]ethanol] |

| Compound | molar heat capacity at constant pressure [J/K/mol] |
| --- | --- |
| CCCCOCCO [2-butoxyethan-1-ol] | 267.6 ± 4.1 |

Same assay, conditions: 289.15 K; 101.33 kPa; Liquid; Large sample (1 g) DSC

| molar heat capacity at constant pressure [J/K/mol] | Compound |
| --- | --- |
| 354.7 ± 5.5 | COCCOCCOCCO [2-[2-(2-methoxyethoxy)ethoxy]ethanol] |
| 356.5 ± 5.5 | CCCCOCCOCCO [3,6-dioxa-1-decanol] |
| 569.5 ± 8.8 | CCCCCCCCOCCOCCOCCO [2-[2-[2-(octyloxy)ethoxy]ethoxy]ethanol] |

| Compound | molar heat capacity at constant pressure [J/K/mol] |
| --- | --- |
| CCCCOCCO [2-butoxyethan-1-ol] | 268.5 ± 4.2 |

Same assay, conditions: 291.15 K; 101.33 kPa; Liquid; Large sample (1 g) DSC

| molar heat capacity at constant pressure [J/K/mol] | Compound |
| --- | --- |
| 355.1 ± 5.5 | COCCOCCOCCO [2-[2-(2-methoxyethoxy)ethoxy]ethanol] |
| 357.3 ± 5.5 | CCCCOCCOCCO [3,6-dioxa-1-decanol] |
| 570.4 ± 8.8 | CCCCCCCCOCCOCCOCCO [2-[2-[2-(octyloxy)ethoxy]ethoxy]ethanol] |

| Compound | molar heat capacity at constant pressure [J/K/mol] |
| --- | --- |
| CCCCOCCO [2-butoxyethan-1-ol] | 269.5 ± 4.2 |

Same assay, conditions: 293.15 K; 101.33 kPa; Liquid; Large sample (1 g) DSC

| molar heat capacity at constant pressure [J/K/mol] | Compound |
| --- | --- |
| 355.5 ± 5.5 | COCCOCCOCCO [2-[2-(2-methoxyethoxy)ethoxy]ethanol] |
| 358.1 ± 5.5 | CCCCOCCOCCO [3,6-dioxa-1-decanol] |
| 571.3 ± 8.9 | CCCCCCCCOCCOCCOCCO [2-[2-[2-(octyloxy)ethoxy]ethoxy]ethanol] |

| Compound | molar heat capacity at constant pressure [J/K/mol] |
| --- | --- |
| CCCCOCCO [2-butoxyethan-1-ol] | 270.5 ± 4.2 |

Same assay, conditions: 295.15 K; 101.33 kPa; Liquid; Large sample (1 g) DSC

| molar heat capacity at constant pressure [J/K/mol] | Compound |
| --- | --- |
| 355.9 ± 5.5 | COCCOCCOCCO [2-[2-(2-methoxyethoxy)ethoxy]ethanol] |
| 359 ± 5.6 | CCCCOCCOCCO [3,6-dioxa-1-decanol] |
| 572.2 ± 8.9 | CCCCCCCCOCCOCCOCCO [2-[2-[2-(octyloxy)ethoxy]ethoxy]ethanol] |

| Compound | molar heat capacity at constant pressure [J/K/mol] |
| --- | --- |
| CCCCOCCO [2-butoxyethan-1-ol] | 271.5 ± 4.2 |

Same assay, conditions: 297.15 K; 101.33 kPa; Liquid; Large sample (1 g) DSC

| molar heat capacity at constant pressure [J/K/mol] | Compound |
| --- | --- |
| 356.3 ± 5.5 | COCCOCCOCCO [2-[2-(2-methoxyethoxy)ethoxy]ethanol] |
| 359.8 ± 5.6 | CCCCOCCOCCO [3,6-dioxa-1-decanol] |
| 573.2 ± 8.9 | CCCCCCCCOCCOCCOCCO [2-[2-[2-(octyloxy)ethoxy]ethoxy]ethanol] |

| Compound | molar heat capacity at constant pressure [J/K/mol] |
| --- | --- |
| CCCCOCCO [2-butoxyethan-1-ol] | 272.5 ± 4.2 |

Same assay, conditions: 298.15 K; 101.33 kPa; Liquid; Large sample (1 g) DSC

| molar heat capacity at constant pressure [J/K/mol] | Compound |
| --- | --- |
| 356.6 ± 5.5 | COCCOCCOCCO [2-[2-(2-methoxyethoxy)ethoxy]ethanol] |
| 360.2 ± 5.6 | CCCCOCCOCCO [3,6-dioxa-1-decanol] |
| 573.7 ± 8.9 | CCCCCCCCOCCOCCOCCO [2-[2-[2-(octyloxy)ethoxy]ethoxy]ethanol] |

| Compound | molar heat capacity at constant pressure [J/K/mol] |
| --- | --- |
| CCCCOCCO [2-butoxyethan-1-ol] | 273 ± 4.2 |

Same assay, conditions: 299.15 K; 101.33 kPa; Liquid; Large sample (1 g) DSC

| molar heat capacity at constant pressure [J/K/mol] | Compound |
| --- | --- |
| 356.8 ± 5.5 | COCCOCCOCCO [2-[2-(2-methoxyethoxy)ethoxy]ethanol] |
| 360.6 ± 5.6 | CCCCOCCOCCO [3,6-dioxa-1-decanol] |
| 574.2 ± 8.9 | CCCCCCCCOCCOCCOCCO [2-[2-[2-(octyloxy)ethoxy]ethoxy]ethanol] |

| Compound | molar heat capacity at constant pressure [J/K/mol] |
| --- | --- |
| CCCCOCCO [2-butoxyethan-1-ol] | 273.5 ± 4.2 |

Same assay, conditions: 301.15 K; 101.33 kPa; Liquid; Large sample (1 g) DSC

| molar heat capacity at constant pressure [J/K/mol] | Compound |
| --- | --- |
| 357.2 ± 5.5 | COCCOCCOCCO [2-[2-(2-methoxyethoxy)ethoxy]ethanol] |
| 361.5 ± 5.6 | CCCCOCCOCCO [3,6-dioxa-1-decanol] |
| 575.2 ± 8.9 | CCCCCCCCOCCOCCOCCO [2-[2-[2-(octyloxy)ethoxy]ethoxy]ethanol] |

| Compound | molar heat capacity at constant pressure [J/K/mol] |
| --- | --- |
| CCCCOCCO [2-butoxyethan-1-ol] | 274.5 ± 4.3 |

Same assay, conditions: 303.15 K; 101.33 kPa; Liquid; Large sample (1 g) DSC

| molar heat capacity at constant pressure [J/K/mol] | Compound |
| --- | --- |
| 357.7 ± 5.5 | COCCOCCOCCO [2-[2-(2-methoxyethoxy)ethoxy]ethanol] |
| 362.4 ± 5.6 | CCCCOCCOCCO [3,6-dioxa-1-decanol] |
| 576.2 ± 8.9 | CCCCCCCCOCCOCCOCCO [2-[2-[2-(octyloxy)ethoxy]ethoxy]ethanol] |

| Compound | molar heat capacity at constant pressure [J/K/mol] |
| --- | --- |
| CCCCOCCO [2-butoxyethan-1-ol] | 275.5 ± 4.3 |

Same assay, conditions: 305.15 K; 101.33 kPa; Liquid; Large sample (1 g) DSC

| molar heat capacity at constant pressure [J/K/mol] | Compound |
| --- | --- |
| 358.1 ± 5.5 | COCCOCCOCCO [2-[2-(2-methoxyethoxy)ethoxy]ethanol] |
| 363.3 ± 5.6 | CCCCOCCOCCO [3,6-dioxa-1-decanol] |
| 577.3 ± 8.9 | CCCCCCCCOCCOCCOCCO [2-[2-[2-(octyloxy)ethoxy]ethoxy]ethanol] |

| Compound | molar heat capacity at constant pressure [J/K/mol] |
| --- | --- |
| CCCCOCCO [2-butoxyethan-1-ol] | 276.5 ± 4.3 |

From the NIST ThermoML archive (doi:10.1021/acs.jced.5b00051)
